Laboratory results from patent publication US20260376293A1, “METHODS FOR STUDYING GPR158 PHARMACOLOGY AND IDENTIFICATION OF ITS LIGANDS” (UNIVERSITY OF FLORIDA RESEARCH FOUNDATION, INCORPORATED, priority 2022, published 2026).

Target: T1, GPR158 (Homo sapiens, UniProt Q5T848)
T1 construct: expressed in transfected cells; host or cells: HEK293T/17
T1 sequence (Q5T848 24-1215): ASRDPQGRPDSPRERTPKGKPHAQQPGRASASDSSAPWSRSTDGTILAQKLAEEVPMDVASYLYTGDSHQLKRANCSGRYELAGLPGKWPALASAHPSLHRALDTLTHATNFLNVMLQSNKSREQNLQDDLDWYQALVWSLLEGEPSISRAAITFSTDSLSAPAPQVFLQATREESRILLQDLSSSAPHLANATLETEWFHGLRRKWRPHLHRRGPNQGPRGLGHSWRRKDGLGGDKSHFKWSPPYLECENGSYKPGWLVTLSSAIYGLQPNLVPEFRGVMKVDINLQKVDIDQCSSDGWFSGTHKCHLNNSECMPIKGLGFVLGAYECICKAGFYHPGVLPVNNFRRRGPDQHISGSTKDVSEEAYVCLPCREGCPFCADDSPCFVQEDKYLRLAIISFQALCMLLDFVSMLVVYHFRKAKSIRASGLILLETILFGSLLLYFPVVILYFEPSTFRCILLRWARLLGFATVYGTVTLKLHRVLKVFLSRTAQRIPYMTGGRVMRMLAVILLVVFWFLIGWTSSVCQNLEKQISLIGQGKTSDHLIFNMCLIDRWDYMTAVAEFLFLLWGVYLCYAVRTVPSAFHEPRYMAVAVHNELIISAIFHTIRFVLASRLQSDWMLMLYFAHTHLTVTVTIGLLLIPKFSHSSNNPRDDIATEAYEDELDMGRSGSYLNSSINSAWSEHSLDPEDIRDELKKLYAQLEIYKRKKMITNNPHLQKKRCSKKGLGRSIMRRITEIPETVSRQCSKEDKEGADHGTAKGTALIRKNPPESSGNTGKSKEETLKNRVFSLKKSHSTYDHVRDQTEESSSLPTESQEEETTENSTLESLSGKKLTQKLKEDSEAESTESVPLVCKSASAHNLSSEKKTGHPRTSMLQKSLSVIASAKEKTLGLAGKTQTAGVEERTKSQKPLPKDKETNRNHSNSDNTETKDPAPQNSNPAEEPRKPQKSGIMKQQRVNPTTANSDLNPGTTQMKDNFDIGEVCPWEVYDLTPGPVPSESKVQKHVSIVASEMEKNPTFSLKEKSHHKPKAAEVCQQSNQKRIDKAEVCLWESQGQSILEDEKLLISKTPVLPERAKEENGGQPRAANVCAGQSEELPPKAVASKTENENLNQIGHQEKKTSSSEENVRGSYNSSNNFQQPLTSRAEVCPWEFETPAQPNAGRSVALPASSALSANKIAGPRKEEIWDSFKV
T1 sequence (P49802 1-495 partner): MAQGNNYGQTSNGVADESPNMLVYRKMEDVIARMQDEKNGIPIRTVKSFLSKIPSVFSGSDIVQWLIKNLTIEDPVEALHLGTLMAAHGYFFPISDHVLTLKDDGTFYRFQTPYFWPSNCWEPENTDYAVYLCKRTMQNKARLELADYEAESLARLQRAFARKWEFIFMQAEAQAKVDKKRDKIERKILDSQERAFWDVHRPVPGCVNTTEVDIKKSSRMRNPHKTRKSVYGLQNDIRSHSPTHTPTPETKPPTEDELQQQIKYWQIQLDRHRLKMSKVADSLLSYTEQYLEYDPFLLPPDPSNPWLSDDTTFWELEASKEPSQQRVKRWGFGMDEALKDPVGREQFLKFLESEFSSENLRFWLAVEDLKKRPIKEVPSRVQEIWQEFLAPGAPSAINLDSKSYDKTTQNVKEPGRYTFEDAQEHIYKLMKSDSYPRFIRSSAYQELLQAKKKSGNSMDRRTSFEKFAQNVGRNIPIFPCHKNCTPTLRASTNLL
T1 sequence (O14775 1-395 partner): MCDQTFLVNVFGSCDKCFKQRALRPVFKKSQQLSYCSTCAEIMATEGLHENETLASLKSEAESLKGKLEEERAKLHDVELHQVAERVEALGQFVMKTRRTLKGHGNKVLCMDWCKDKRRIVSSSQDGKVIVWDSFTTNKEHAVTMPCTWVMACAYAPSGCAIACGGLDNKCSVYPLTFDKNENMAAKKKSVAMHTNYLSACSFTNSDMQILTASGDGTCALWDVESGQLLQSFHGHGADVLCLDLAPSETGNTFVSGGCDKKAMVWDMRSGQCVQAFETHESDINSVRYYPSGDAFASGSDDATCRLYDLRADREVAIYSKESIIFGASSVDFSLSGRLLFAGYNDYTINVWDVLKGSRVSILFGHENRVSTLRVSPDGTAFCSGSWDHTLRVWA
Test: HTRF cAMP Gαi assay, HEK293T/17 cells
Assay type: cell-based
Settings: forskolin; GPR158-RGS7/Gβ5, HEK293T/17
Method: FIGS. 18A-18C: A. Schematic representation of HTRF Gαi CAMP assay. B. cAMP standard curve to establish assay window and dynamic range. The data shown here indicate the HTRF ratio plotted as a function of various concentrations of cAMP standards (0.17 nM to 712 nM). The curve fitting was performed using Nonlinear regression analysis in Graphpad Prism software. C. Gly treatment of GPR158-RGS7/Gβ5 expressing HEK293T/17 cells leads to depletion of cAMP levels in a concentration dependent manner. Data shown here represent the HTRF ratio normalized with respect to the buffer treated cells (control) (Mean±SEM from 1 experiment performed in triplicates).
HEK293T/17 cells were transfected with GPR158, RGS7 and Gβ5 plasmids as mentioned above by Maxcyte electroporation. 24 hours post transfection, cells were harvested by centrifugation, counted, and seeded in a white 384 well plate at a density of 6000 cells per well after resuspending in the stimulation buffer provided with the kit. […] The HTRF signal was measured using the HTRF optic module (donor excitation: 337 nm, donor emission: 620 nm, acceptor emission 665 nm) and laser energy source in the Pherastar FSX microplate reader (BMG Labtech).
The data were plotted as the ratio of fluorescence emission intensities by acceptor and donor (Em 665 nm/Em 620 nm). […]

NCC(=O)O [glycine]
HTRF signal change (cAMP decrease): increase in HTRF signal in a Gly dose dependent fashion
